# According to patent publication US11377425B1, “Small molecule modulators of IL-17” (LEO Pharma A/S, priority 2018, dated 2022):
# Biological target: T1, human IL-17AA (Homo sapiens, UniProt Q16552)
# T1 construct: host or cells: HEK (human embryonic kidney) cells
# T1 sequence (Q16552 24-155): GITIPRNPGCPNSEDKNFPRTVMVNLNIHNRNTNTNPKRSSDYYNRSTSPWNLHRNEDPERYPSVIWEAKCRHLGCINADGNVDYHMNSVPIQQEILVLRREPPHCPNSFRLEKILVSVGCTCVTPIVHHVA
# Experiment: IL-8 release assay in human epithelial keratinocytes adult (HEKa)
# Format: cell-based
# Details: HEKa cells, 3 ng/mL HEK-human IL-17AA + 10 ng/mL human TNFalpha; read-out: Rel EC50 IL-8 release assay
# Procedure, shortened: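 Adult human epidermal keratinocytes stimulated 68-72 h at 37 °C with 3 ng/mL HEK-derived human IL-17AA plus 10 ng/mL TNF-alpha (final) in the presence of compound; TNF-alpha alone defines 100% inhibition. Secreted IL-8 measured by HTRF as percent of controls; relative IC50/Emax from four-parameter fit (r^2>0.9), cytotoxicity by PrestoBlue.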
row,Compound,EC50
1,"CC(C)C[C@H](NC(=O)OC(C)(C)C)C(=O)Nc1ccc(-c2cncn2C)cc1 [Example 96, tert-butyl N-[(1S)-3-methyl-1-[[4-(3-methylimidazol-4-yl)phenyl]carbamoyl]butyl] carbamate]",> 1000 nM
2,"Cn1cncc1-c1ccc(NC(=O)[C@H](Cc2ccccc2Cl)NC(=O)OC(C)(C)C)cc1 [Example 97, tert-butyl N-[(1S)-1-[(2-chlorophenyl)methyl]-2-[4-(3-methylimidazol-4-yl)anilino]-2-oxo-ethyl]carbamate]",> 1000 nM
3,"Cn1cncc1-c1ccc(NC(=O)[C@@H](NC(=O)OC(C)(C)C)C2CCCC2)cc1 [Example 98, tert-butyl N-[(1S)-1-cyclopentyl-2-[4-(3-methylimidazol-4-yl)anilino]-2-oxo-ethyl]carbamate]",> 1000 nM
4,"Cn1cncc1-c1ccc(NC(=O)[C@@H](NC(=O)OC(C)(C)C)C2Cc3ccccc3C2)cc1 [Example 99, tert-butyl N-[(1S)-1-indan-2-yl-2-[4-(3-methylimidazol-4-yl)anilino]-2-oxo-ethyl]carbamate]",> 1000 nM
5,"Cn1cncc1-c1ccc(NC(=O)[C@@H](NC(=O)OC(C)(C)C)C2CCCCC2)cc1 [Example 100, tert-butyl N-[(1S)-1-cyclohexyl-2-[4-(3-methylimidazol-4-yl)anilino]-2-oxo-ethyl]carbamate]",> 1000 nM
6,"Cn1cncc1-c1ccc(NC(=O)[C@@H](NC(=O)OC(C)(C)C)C(c2ccccc2)c2ccccc2)cc1 [Example 101, tert-butyl N-[(1S)-1-benzhydryl-2-[4-(3-methylimidazol-4-yl)anilino]-2-oxo-ethyl]carbamate]",> 1000 nM
7,"Cc1n[nH]c(C)c1-c1ccc(NC(=O)[C@@H](NC(=O)c2ccnn2CCCO)C(C2CC2)C2CC2)cc1 [Example 102, N-[(1S)-1-(dicyclopropylmethyl)-2-[4-(3,5-dimethyl-1H-pyrazol-4-yl)anilino]-2-oxo-ethyl]-2-(3-hydroxypropyl)pyrazole-3-carboxamide]",< 100 nM
8,"CC[C@H](C)[C@H](NC(=O)c1ccnn1CC)C(=O)Nc1ccc(-c2c(C)n[nH]c2C)cc1 [Example 109, N-[(1S,25)-1-[[4-(3,5-dimethyl-1H-pyrazol-4-yl)phenyl]carbamoyl]-2-methyl-butyl]-2-ethyl-pyrazole-3-carboxamide]",100 to 1000 nM
9,CC[C@H](C)[C@H](NC(=O)c1ccnn1C(C)C)C(=O)Nc1ccc(-c2c(C)n[nH]c2C)cc1 [Example 110],100 to 1000 nM
10,CC[C@@H](C)[C@H](NC(=O)c1ccnn1C)C(=O)Nc1ccc(-c2c(C)n[nH]c2C)cc1 [Example 113],> 1000 nM
11,"Cc1n[nH]c(C)c1-c1ccc(NC(=O)[C@@H](NC(=O)c2ccnn2CC(F)F)C(C2CC2)C2CC2)cc1 [Example 115, N-[(1S)-1-(dicyclopropylmethyl)-2-[4-(3,5-dimethyl-1H-pyrazol-4-yl)anilino]-2-oxo-ethyl]-2-(2,2-difluoroethyl)pyrazole-3-carboxamide]",< 100 nM
12,CCC(CC)[C@H](NC(=O)c1ccnn1C)C(=O)Nc1ccc(-c2c(C)n[nH]c2C)cc1 [Example 118],100 to 1000 nM
13,Cc1n[nH]c(C)c1-c1ccc(NC(=O)[C@@H](NC(=O)c2ccnn2C(C)CO)C(C2CC2)C2CC2)cc1 (stereo partly drawn) [Example 120],100 to 1000 nM
14,CCC(CC)[C@H](NC(=O)c1ccnn1C(C)C)C(=O)Nc1ccc(-c2c(C)n[nH]c2C)cc1 [Example 121],100 to 1000 nM
15,"Cc1n[nH]c(C)c1-c1ccc(NC(=O)[C@@H](NC(=O)c2ccnn2CCC(F)(F)F)C(C2CC2)C2CC2)cc1 [Example 130, N-[(1S)-1-(dicyclopropylmethyl)-2-[4-(3,5-dimethyl-1H-pyrazol-4-yl)anilino]-2-oxo-ethyl]-2-(3,3,3-trifluoropropyl)pyrazole-3-carboxamide]",< 100 nM
16,"Cc1n[nH]c(C)c1-c1ccc(NC(=O)[C@@H](NC(=O)c2ccnn2CCN(C)C)C(C2CC2)C2CC2)cc1 [Example 131, N-[(1S)-1-(dicyclopropylmethyl)-2-[4-(3,5-dimethyl-1H-pyrazol-4-yl)anilino]-2-oxo-ethyl]-2-(2-dimethylaminoethyl) pyrazole-3-carboxamide]",100 to 1000 nM

# Second part, the compound after the results:
row,EC50,Compound
1,> 1000 nM,"Cc1n[nH]c(C)c1-c1ccc(NC(=O)[C@H](NC(=O)c2ccnn2C)C2CCCCC2)cc1 [Example 103, N-[(1R)-1-cyclohexyl-2-[4-(3,5-dimethyl-1H-pyrazol-4-yl)anilino]-2-oxo-ethyl]-2-methyl-pyrazole-3-carboxamide]"
2,< 100 nM,"Cc1n[nH]c(C)c1-c1ccc(NC(=O)[C@@H](NC(=O)c2ccnn2CC(F)F)C2CCCCC2)cc1 [Example 106, N-[(1S)-1-cyclohexyl-2-[4-(3,5-dimethyl-1H-pyrazol-4-yl)anilino]-2-oxo-ethyl]-2-(2,2-difluoroethyl)pyrazole-3-carboxamide]"
3,< 100 nM,"CCn1nccc1C(=O)N[C@H](C(=O)Nc1ccc(-c2c(C)n[nH]c2C)cc1)C(C1CC1)C1CC1 [Example 107, N-[(1S)-1-(dicyclopropylmethyl)-2-[4-(3,5-dimethyl-1H-pyrazol-4-yl)anilino]-2-oxo-ethyl]-2-ethyl-pyrazole-3-carboxamide]"
4,< 100 nM,"Cc1n[nH]c(C)c1-c1ccc(NC(=O)[C@@H](NC(=O)c2ccnn2C2CCC2)C2CCCCC2)cc1 [Example 108, 2-cyclobutyl-N-[(1S)-1-cyclohexyl-2-[4-(3,5-dimethyl-1H-pyrazol-4-yl)anilino]-2-oxo-ethyl]pyrazole-3-carboxamide]"
5,> 1000 nM,"Cc1n[nH]c(C)c1-c1ccc(NC(=O)[C@H](NC(=O)c2ccnn2C(C)C)C2CCC3(CC2)CC3)cc1 [Example 111, N-[(1R)-2-[4-(3,5-dimethyl-1H-pyrazol-4-yl)anilino]-2-oxo-1-spiro[2.5]octan-6-yl-ethyl]-2-isopropyl-pyrazole-3-carboxamide]"
6,< 100 nM,"Cc1n[nH]c(C)c1-c1ccc(NC(=O)[C@@H](NC(=O)c2ccnn2C(C)C)C2CCC3(CC2)CC3)cc1 [Example 112, N-[(1S)-2-[4-(3,5-dimethyl-1H-pyrazol-4-yl)anilino]-2-oxo-1-spiro[2.5]octan-6-yl-ethyl]-2-isopropyl-pyrazole-3-carboxamide]"
7,< 100 nM,"Cc1n[nH]c(C)c1-c1ccc(NC(=O)[C@@H](NC(=O)c2ccnn2C2CCC2)C(C2CC2)C2CC2)cc1 [Example 114, 2-cyclobutyl-N-[(1S)-1-(dicyclopropylmethyl)-2-[4-(3,5-dimethyl-1H-pyrazol-4-yl)anilino]-2-oxo-ethyl]pyrazole-3-carboxamide]"
8,< 100 nM,"Cc1n[nH]c(C)c1-c1ccc(NC(=O)[C@@H](NC(=O)c2ccnn2C2CC2)C(C2CC2)C2CC2)cc1 [Example 116, 2-cyclopropyl-N-[(1S)-1-(dicyclopropylmethyl)-2-[4-(3,5-dimethyl-1H-pyrazol-4-yl)anilino]-2-oxo-ethyl]pyrazole-3-carboxamide]"
9,< 100 nM,"Cc1n[nH]c(C)c1-c1ccc(NC(=O)[C@@H](NC(=O)c2ccnn2C)C(C2CC2)C2CC2)cc1 [Example 117, N-[(1S)-1-(dicyclopropylmethyl)-2-[4-(3,5-dimethyl-1H-pyrazol-4-yl)anilino]-2-oxo-ethyl]-2-methyl-pyrazole-3-carboxamide]"
10,< 100 nM,Cc1n[nH]c(C)c1-c1ccc(NC(=O)[C@@H](NC(=O)c2ccnn2CCO)C(C2CCC2)C2CCC2)cc1 [Example 122]
11,< 100 nM,"Cc1n[nH]c(C)c1-c1ccc(NC(=O)[C@@H](NC(=O)c2ccnn2C)[C@H]2CC[C@H](C)CC2)cc1 [Example 125, Trans N-[(1S)-2-[4-(3,5-dimethyl-1H-pyrazol-4-yl)anilino]-1-(4-methylcyclohexyl)-2-oxo-ethyl]-2-methyl-pyrazole-3-carboxamide]"
12,< 100 nM,"CCn1nccc1C(=O)N[C@H](C(=O)Nc1ccc(-c2c(C)n[nH]c2C)cc1)[C@H]1CC[C@H](C)CC1 [Example 126, Trans N-[(1S)-2-[4-(3,5-dimethyl-1H-pyrazol-4-yl)anilino]-1-(4-methylcyclohexyl)-2-oxo-ethyl]-2-ethyl-pyrazole-3-carboxamide]"
13,< 100 nM,"Cc1n[nH]c(C)c1-c1ccc(NC(=O)[C@@H](NC(=O)c2ccnn2C(C)C)[C@H]2CC[C@H](C)CC2)cc1 [Example 127, Trans N-[(1S)-2-[4-(3,5-dimethyl-1H-pyrazol-4-yl)anilino]-1-(4-methylcyclohexyl)-2-oxo-ethyl]-2-isopropyl-pyrazole-3-carboxamide]"
14,< 100 nM,"CCC(C)n1nccc1C(=O)N[C@H](C(=O)Nc1ccc(-c2c(C)n[nH]c2C)cc1)C(C1CC1)C1CC1 (stereo partly drawn) [Example 128, N-[(1S)-1-(dicyclopropylmethyl)-2-[4-(3,5-dimethyl-1H-pyrazol-4-yl)anilino]-2-oxo-ethyl]-2-sec-butyl-pyrazole-3-carboxamide]"
15,< 100 nM,"Cc1n[nH]c(C)c1-c1ccc(NC(=O)[C@@H](NC(=O)c2ccnn2CC2CC2)C(C2CC2)C2CC2)cc1 [Example 129, 2-(cyclopropylmethyl)-N-[(1S)-1-(dicyclopropylmethyl)-2-[4-(3,5-dimethyl-1H-pyrazol-4-yl)anilino]-2-oxo-ethyl]pyrazole-3-carboxamide]"
16,< 100 nM,"Cc1n[nH]c(C)c1-c1ccc(NC(=O)[C@@H](NC(=O)c2ccnn2CC(C)C)C(C2CC2)C2CC2)cc1 [Example 132, N-[(1S)-1-(dicyclopropylmethyl)-2-[4-(3,5-dimethyl-1H-pyrazol-4-yl)anilino]-2-oxo-ethyl]-2-isobutyl-pyrazole-3-carboxamide]"
17,< 100 nM,"CCCn1nccc1C(=O)N[C@H](C(=O)Nc1ccc(-c2c(C)n[nH]c2C)cc1)C(C1CC1)C1CC1 [Example 133, N-[(1S)-1-(dicyclopropylmethyl)-2-[4-(3,5-dimethyl-1H-pyrazol-4-yl)anilino]-2-oxo-ethyl]-2-propyl-pyrazole-3-carboxamide]"
